Drawing on US9938273B2 (Plexxikon Inc., priority 2015, dated 2018), this text covers IC50 for six molecules.

Each structure is given as a SMILES string.

In assay [1] the test system is MOLM-14 D835Y cells, FLT3 ITD and FLT3 D835Y. Nature of the assay: Cell proliferation assay (CellTiter-Glo), MOLM-14 D835Y. Type of assay: cell-based. To be noted: Homo sapiens, 72 h, 3d-Growth, GMean. In outline: (§1)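 MOLM-14 AML cells (endogenous FLT3 ITD, AC220-selected D835Y or F691L variants) or murine Ba/F3 expressing full-length FLT3 ITD/D835Y, without IL-3 for FLT3 dependence, 1×10^4 cells/well. Eight-point 1:3 series from 1 μM final, 0.2% DMSO, 3 days at 37 °C. CellTiter-Glo luminescence (ATP) gave IC50.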
A general note: In ATP-based viability assays light output follows the ATP content of the culture.

Assay [2] has as its system MOLM-14 F691L cells, FLT3 ITD and FLT3 F691L. Nature of the assay: Cell proliferation assay (CellTiter-Glo), MOLM-14 F691L. It counts as cell-based. Conditions: Homo sapiens, 72 h, 3d-Growth, GMean. In outline: as §1

The IC50 is the midpoint of a concentration-inhibition curve. A low value points to higher potency. For the molecule `CC(C)(C#N)CNC(=O)c1cccc(-c2cnc3[nH]c(C4=CCCCC4)cc3c2)n1` [Compound P-0123, N-(2-cyano-2-methyl-propyl)-6-[2-(cyclohexen-1-yl)-1H-pyrrolo[2,3-b]pyridin-5-yl]pyridine-2-carboxamide], the half-maximal inhibitory concentration (IC50) in assay [1] and in assay [2] was 0.0001 to 10 µM in each case.
As for `CC(C)(C#N)NC(=O)c1cccc(-c2cnc3[nH]c(-c4ccc(C5CC5)nc4)cc3c2)n1` [Compound P-0168, N-(1-cyano-1-methyl-ethyl)-6-[2-(6-cyclopropyl-3-pyridyl)-1H-pyrrolo[2,3-b]pyridin-5-yl]pyridine-2-carboxamide], the IC50 in assay [1] and in assay [2] was 0.0001 to 10 µM in each case.
For `CN[C@@H]1CCN(C(=O)c2ccc(-c3cnc4[nH]c(-c5ccccc5)cc4c3)s2)C1` [Compound P-0106, [(3R)-3-(methylamino)pyrrolidin-1-yl]-[5-(2-phenyl-1H-pyrrolo[2,3-b]pyridin-5-yl)-2-thienyl]methanone], the IC50 in assay [1] and in assay [2] was 0.0001 to 10 µM in each case.
For the molecule `CC(C)(C#N)NC(=O)c1cccc(-c2cnc3[nH]c(-c4cnn(C5CCOC5)c4)cc3c2)n1` (stereo not drawn) [Compound P-0173, N-(1-cyano-1-methyl-ethyl)-6-[2-(1-tetrahydrofuran-3-ylpyrazol-4-yl)-1H-pyrrolo[2,3-b]pyridin-5-yl]pyridine-2-carboxamide], the 50% inhibitory concentration (IC50) in assay [1] and in assay [2] was 0.0001 to 10 µM throughout.
Consider `N#CC1(NC(=O)c2cccc(-c3cnc4[nH]c(-c5ccccc5)cc4c3)n2)CCCC1` [Compound P-0146, N-(1-cyanocyclopentyl)-6-(2-phenyl-1H-pyrrolo[2,3-b]pyridin-5-yl)pyridine-2-carboxamide], for which the half-maximal inhibitory concentration (IC50) in assay [1] and in assay [2] was 0.0001 to 10 µM in each case.
In the case of `N#CC1CCN(C(=O)c2cccc(-c3cnc4[nH]c(C5=CCN(C(=O)C6CC6)C5)cc4c3)n2)C1` (stereo not drawn) [Compound P-0136, 1-[6-[2-[1-(cyclopropanecarbonyl)-2,5-dihydropyrrol-3-yl]-1H-pyrrolo[2,3-b]pyridin-5-yl]pyridine-2-carbonyl]pyrrolidine-3-carbonitrile], the IC50 in assay [1] and in assay [2] was 0.0001 to 10 µM throughout.
